In patent US4886826A, “Substituted 2,3,4,9-tetrahydro-1H-carbazole-1-acetic acid derivatives, composition and use” (American Home Products Corporation, priority 1989, dated 1989):
Read-outs that look alike come from different tables or passages of the source.

Tests used:
[1] = system: Freund's complete adjuvant-induced hind paw edema in rats; assay: Preventative Adjuvant Edema (Freund's complete adjuvant hind paw edema, acute anti-inflammatory effect); format: in vivo, Male Sprague Dawley rats; settings: 25 mg/kg, p.o.; rat; edema volume day 0 to day 3
Description: This test is a primary screen for anti-inflammatory drugs.
Male Sprague Dawley rats (180-200 g) are used. The animals have free access to water but food is withdrawn 18 hours before testing.
Freund's complete adjuvant is prepared by suspending 5 mg of killed and dried Mycobacterium butyricum (Difco) in 1 mL liquid paraffin. The test compounds are dissolved in distilled water or suspended in 0.5% Tween 80 in distilled water according to their solubility. For primary screening all drugs are administered by gastric gavage at the arbitrary dosage of 25 mg/kg, p.o. in a volume of 0.5 mL/100 g body weight to groups of 10 animals.
The method is essentially that described by Wax et al, J. Pharmacol. Exp. Ther., 192, 166-171 (1975). Groups of rats are injected intradermally in the left hind paw with 0.1 mL of Freund's complete adjuvant. The test compound or vehicle is administered immediately before the adjuvant, 24 hours and 48 hours after the adjuvant (days 0, 1 and 2). The injected hind paw volume is measured before the injection of adjuvant and 24 hours after the last drug administration (day 3) by means of a plethysomometer (Buxco Electronics Inc.). The difference between the hind paw volume on day 0 and day 3 represents the edema volume. Etodolac (25 mg/kg, p.o.) is included as a positive control.
The mean edema volume (expressed as mL±SEM) is calculated for each group and the percentage inhibition of inflammation conferred by the drug is calculated: [formula] where c is the mean edema volume for the untreated controls and t is the mean edema volume for the drug treated group.

[2] = system: Phenylbenzoquinone-induced writhing in mice; assay: Phenylbenzoquinone-induced Writhing in Mice (analgesic activity); format: in vivo, Male Swiss albino mice; settings: 10 mg/kg, p.o.; mouse; writhes in 15 minutes, PBQ i.p. 60 minutes after dosing
Description: A further test used to determine the utility of the compounds of the present invention is designated: Drug Effects on Phenylbenzoquinone-induced Writhing in Mice.
The objective of this test is to determine the ability of test drugs to inhibit the nociceptive (pain) response of mice injected with a chemical irritant. This test is a primary screen for both peripherally and centrally acting analgesic drugs.
Male Swiss albino mice (15-25 g) are used. The animals are fasted for 18 hours prior to use but have free access to water.
Drugs are dissolved or suspended according to their solubility in 0.5% Tween 80 in distilled water. They are administered by gastric gavage in a volume of 5 mL/kg. For primary screening all drugs are administered at the arbitrary dosage of 10 mg/kg, p.o. to a group of 10 mice.
A modification of the method of Siegmund et al., Proc. Soc. Exp. Biol. Med., 95, 729-731 (1957) is used. Groups of 5 mice are dosed with the test compound or vehicle control. Sixty minutes later the animals are injected i.p. with 0.3 mL/20 g body weight of a 0.02% solution of phenylbenzoquinone (PBQ; 2-phenyl-1,4-benzoquinone) and placed in individual observation boxes. The number of writhes or abdominal squirming movements made by each mouse during the following 15 minute period is counted. The experiment is repeated with another group of 5 mice and the mean number of writhes per mouse for a group of 10 mice is calculated.
Drug-treated and vehicle-treated control groups are compared and the percentage protection conferred by the drug is calculated: [formula] where c=mean number of writhes in the control group where t=mean number of writhes in the test drug group

lipoxygenase = assay: Rat Polymorphonuclear Leukocyte Assay, lipoxygenase products (leukotriene B4, 5-HETE); format: cell-based; settings: 10 min, 10 μM drug concentration, minus=decrease, plus=increase relative to control (no drug), A23187-stimulated, 3H arachidonic acid
Description: (§1) A test for lipoxygenase and cyclooxygenase inhibitory activity is the Rat Polymorphonuclear Leukocyte Assay. The assay is carried out as follows: glycogen-elicited rat peritoneal cells (10^7 /1.0 mL) are incubated (37° C.)±drug in a shaking water bath for 10 minutes. One micromolar (final concentration) ^3 H arachidonic acid (2.0 μCi) is then added to each sample followed by the immediate addition of 1.0 micromolar A23187* (final concentration). The cells are incubated another 10 minutes and the reaction is stopped by high-speed centrifugation. Supernatants are then analyzed by HPLC using an in-line radioactivity detector. […] Results are qualitatively expressed as a percent change (minus=decrease, plus=increase) relative to the control (no drug). [drawing 20]

cyclooxygenase = assay: Rat Polymorphonuclear Leukocyte Assay, cyclooxygenase products (thromboxane B2, prostaglandin E2); format: cell-based; settings: 10 min, 10 μM drug concentration, minus=decrease, plus=increase relative to control (no drug), A23187-stimulated, 3H arachidonic acid
Description: as §1

[3] = read-out: % change 5-HETE (5-hydroxyeicosatetraenoic acid)
[4] = read-out: % change leukotriene B4
[5] = read-out: % change prostaglandin E2
[6] = read-out: % change thromboxane B2

| SMILES | % Inhibition [1] | % Inhibition [2] | inhibition at 10 µM (lipoxygenase; [3]) | inhibition at 10 µM (lipoxygenase; [4]) | inhibition at 10 µM (cyclooxygenase; [5]) | inhibition at 10 µM (cyclooxygenase; [6]) |
| --- | --- | --- | --- | --- | --- | --- |
| C=CCCCCC1CCC(CC)(CC(=O)O)c2[nH]c3c(C)cccc3c21 (single isomer, unassigned; isomer a) [Example 3, 1-Ethyl-4-(5-hexenyl)-2,3,4,9-tetrahydro-8-methyl-1H-carbazole-1-acetic Acid (Isomer A)] | 19% | 10% |  |  |  |  |
| C=CC/C=C\C[C@H]1CC[C@@](CC)(CC(=O)O)c2[nH]c3c(C)cccc3c21 (relative stereo) [Example 4, [1, 4 (Z)]-1-Ethyl-4-(2,5-hexadienyl)-2,3,4,9-tetrahydro-8-methyl-1H-carbazole-1-acetic Acid] | 43% | 23% | 94% | 94% | 19% | 88% |
| C=CCCCCC1CCC(CC)(CC(=O)O)c2[nH]c3c(CC)cccc3c21 (single isomer, unassigned) [Example 1, 1,8-Diethyl-4(5-hexenyl)-2,3,4,9-tetrahydro-1H-carbazole-1-acetic Acid] | 0% | 0% | 92% | 93% | 31% | 82% |
| C=CCCCCC1CCC(CC)(CC(=O)O)c2[nH]c3c(C)cccc3c21 (single isomer, unassigned; isomer b) [Example 2, 1-Ethyl-4-(5-hexenyl)-2,3,4,9-tetrahydro-8-methyl-1H-carbazole-1-acetic Acid (Isomer B)] | 28% | 0% | 92% | 95% | -22% | 80% |
